For data set [1], the system named is HUVEC (Human Umbilical Vein Endothelial Cell). Briefly: Inhibitory effect against HUVEC tube formation. In kind it is cell-based. On the set-up: key: −: no effect; +/−: slight effect; +: medium effect; ++: strong effect. The procedure:
HUVEC (Human Umbilical Vein Endothelial Cell) were cultured, and tubulogenesis (tube formation) was induced in vascular endothelial cells by plating them onto the surface of Matrigel for several hours. The effect on tube formation of the test compounds were compared with the vehicle-treated control group, then confirmed their in-vitro anti-angiogenic effect indirectly.

The nature of data set [2]: Acute oral toxicity test in rats. The following applies: SD, rat, in vivo, single oral dose, suspended in 0.5% methyl cellulose, read-out: lethal dose (LD50) for oral administration. An outline of the steps:
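Six-week-old SPF SD rats, two per group, received compounds orally as suspensions in 0.5% methyl cellulose. Endpoints were clinical signs, body weight, mortality, haematology, serum biochemistry and macroscopic necropsy of organs and tissues.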

Data set [3] deals with isolated rat aorta. The data set can be described thus: Vasodilating effect on blood vessel excised from rats (methoxamine-constricted aorta). The following applies: isolated rat aorta constricted with methoxamine (3 μM); read-out: Concentration for inhibition of constriction induced by methoxamine in rat arota (IC50). In short, it runs like this: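 Endothelium-denuded rat thoracic aortic rings (3 mm) in Krebs-Henseleit buffer, 37 °C, carbogen, 2 g resting tension, primed twice with 10^−5 M phenylephrine. After maximal contraction with 3×10^−6 M methoxamine, compounds added cumulatively at 1, 3, 10, 30 μM. IC50 = concentration giving 50% relaxation of maximal constriction, by linear regression.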

Data set [4] deals with brain homogenate. The data set can be described thus: Inhibitory effect against lipid peroxidation by iron (MDA quantification). The data set is classed as biochemical, rat. The following applies: 100 μM compound, FeCl2 400 μM, 37° C. 30 min. The protocol:
The rat brain was homogenized in a Krebs buffer (15 mM HEPES, 10 mM glucose, 140 mM NaCl, 3.6 mM KCl, 1.5 mM CaCl2, 1.4 mM KH2PO4, 0.7 mM MgCl2, PH 7.4) and the supernatant separated by centrifugation at 12,000 rpm for 10 min was used for further experiments. FeCl2 was added for the final concentration to be 400 μM. Then the brain homogenate was allowed to stand at 37° C. for 30 min for the facilitation of oxidation. Each of the test compounds was added at a concentration of 100 μM. For control group, only vehicle was applied.
Iron facilitates the oxidation of the said brain homogenate to produce malondialdehyde (MDA), lipid peroxidation product. Thus, the lipid peroxidation was determined by MDA quantification. The inhibitory effect against lipid peroxidation of the test compounds was evaluated by calculating MDA reduction rate of the test compounds compared with that of the control group.
Typically, the MDA quantification is achieved by reacting samples with 2-thiobarbituric acid (TBA) and measuring the absorbance at 530 nm. However, this method is unsuitable to treat samples on a large scale because of a boiling step. Thus, in this experiment, N-methyl-2-phenylindole was used instead of TBA.

The test system of data set [5] is cortical neuron cells. The data set can be described thus: Protective effect on iron-induced neuronal cell injury (LDH release). The data set is classed as cell-based. The settings on record: FeSO4 50 μM; for protective effect on neuron cell: Inhibition (%, 30 μM compound addition): LDH reduction vs control; for IC50: LDH. An outline of the steps:
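Embryonic (day 17–18) cortical neurons cultured 7–9 days, serum lowered to 0.2%, pretreated 30 min with compound (DMSO ≤0.1%), then exposed to 50 μM FeSO4 for 24 h. LDH released to medium measured; protection expressed as LDH reduction versus vehicle control.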
Background: LDH leaks from cells whose membrane has failed.

Data set [6] concerns RAW 264.7 cells. The data set can be described thus: Inhibitory effect on NO production (LPS, Griess reagent). In kind it is cell-based, murine. The following applies: Mus musculus, RAW264.7, 24 h, Addition 30 μM, LPS 1 μg/ml, read-out: Inihibition (%) of NO production. The protocol:
Using RPMI1640 media supplemented with 10% fetal bovine serum (FBS), RAW 264.7 cells (obtained from American Type Culture Collection), a murine macrophage cell line, were cultured at 37° C. in a 5% CO2 incubator. The RAW 264.7 cells were harvested and cell density was adjusted to 5×10^5 cell/ml with a RPMI media supplemented with 0.5% FBS and plated at 5×10^4 cell/well to 96-well plate, which were then cultured for 20 hours in a CO2 incubator. After removal of the media, the cells were pre-treated for 1 hour with fresh media containing 30 μM. The test compounds were dissolved in DMSO and diluted to respective concentration in the media. In order to minimize DMSO effect on the nitric oxide formation by the RAW 264.7 cells in the walls, the media were allowed to contain DMSO at a concentration of 0.1% or less.
After completion of one-hour pre-treatment, Lipopolysaccharide (E. coli serotype 055:B5) was added to activate the cells at a final concentration of 1 μg/ml, which were maintained for 24 hours in a CO2 incubator. As a result of the activation of RAW 264.7 cells with LPS, NO was formed. The NO release into the media was in a form of nitrite (NO2^−) and quantitatively measured using the Griess reagent. A control group was treated only with vehicle instead of test compounds.
The inhibitory effect of the test compounds against NO production were determined as the reduction of NO quantity compared with that of the control group.
For orientation: Nitrite, measured by Griess reagent, commonly stands in for NO production.

Data set [7] concerns isolated ischemic rat heart. Briefly: Cardioprotective effect in ischemic heart models of rats (Langendorff). The settings on record: 10 μM. The protocol: Male rats (300˜450 g, obtained form the experimental animal team of the Korea Research Institute of Chemical Technology) were anaesthetized by the intra-peritoneal injection of sodium pentobarbital at a dose of 100 mg/kg. Heparin (1,000 U/kg) was injected to the tail vein and then the heart was enucleated. Particularly, cannula (PE 240) was inserted to the organ. Rats were mechanically ventilated with a rodent ventilator, in situ aorta cannula was inserted into their aorta. In retorograde perfusion, their hearts were enucleated, then just hung onto Langendorff Apparatus. Tissue attached at the heart was removed. Heart was perfused in oxygenated modified Krebs-Henseleit bicarbonate buffer (composition<mM/L>116 NaCl, 4.7 KCl, 1.1 MgSO4, 1.17 KH2PO4, 24.9 NaHCO3, 2.52 CaCl2, 8.32 Glucose, 2.0 Pyruvate) at a constant perfusion pressure (85 mmHg). A metal cannula attached to latex balloon filled with solvent (ethanol: water=1:1 (v/v)) was placed in the left ventricle through pulmonary vein and connected to a isovolumetric pressure transducer (H.S.E., Germany) for measurement of left ventricular pressure (LVP). The hearts were allowed to equilibrate for 15 min, at which time left ventricular end-diastolic pressure (EDP) was adjusted to 5 mmHg and this balloon volume was maintained throughout the experiment.
Baseline cardiac contractile function, heart rate (HR), and coronary flow (CF) were measured. Cardiac contractile function was calculated by […], yielding LVDP (left ventricular developed pressure). Double product RPP (rate-pressure product) (DP), another important parameter for indirectly assessing cardiac performance in Langendorff heart impossible to measure cardiac output was calculated by multiplying HR by LVDP.
Throughout the experiment, total coronary blood flow was measured by the use of coronary flow probe (diameter: 1.0 mm) installed in aortic cannula with electromagnetic flowmeter. Temperature of heart was steadily maintained by immersing the heart at 37° C. in physiological saline solution to which 95% O2/5% CO2 was constantly supplied. After stabilization for 15 min, the hearts were pre-treated for 10 min in vehicle (0.04% DMSO) or mixture containing the compound of the present invention or control material. Thereafter, cardiac contractile function, HR and CF were repeatedly measured. Global ischemia was induced by completely shutting off the perfusate for 30 min. Severity of ischemia was determined as the time to contracture (TTC, min) during global ischemia in which the first 5 mmHg increase in EDP was observed. Then, the hearts were reperfused and, 30 min later, contractile functions (LVDP, HR and CF) was repeatedly measured. After reperfusion was accomplished for 30 min, LDH (lactate dehydrogenase) was measured as a sensitive index for loss of cell viability with a kit.

In data set [8] the test system is Low density lipoprotein of human (human LDL). Briefly: Inhibitory effect against lipid peroxidation induced by copper (LDL oxidation, MDA). The data set is classed as biochemical. The settings on record: CuSO4 10 μM, 37° C. 18 hours. The procedure:
Low density lipoprotein of human (human LDL, sigma) was dissolved in water to be final concentration of 1 mg/ml. To remove EDTA (ethylenediamine tetraacetate), the aqueous solution was dialyzed in phosphate buffer at 4° C. for 18 hours. At this dialysis, phosphate buffer was changed three times. Phosphate buffer was added to LDL (100 μg LDL protein/ml) which EDTA was removed from the aqueous solution, additionally thereto CuSO4 10 μM as oxidant was added. […] Group to which CUSO4 was not added was used as blank group. Group to which CUSO4 and vehicle were added in place of test compounds was used as control group. The mixture was incubated at 37° C. for 18 hours. EDTA […] was added to the mixture to terminate the oxidation reaction.
As shown in example 4, Cu^2+ facilitates the oxidation reaction to produce malondialdehyde (MDA), lipid peroxidation product. The MDA quantification is achieved by reacting samples with 2-thiobarbituric acid (TBA) and measuring the absorbance at 530 nm. Also, 1,1,3,3-tetramethoxypropane purchased from sigma was used as standard materials. Inhibitory effect against lipid peroxidation of the test compounds was measured by MDA (nmol) to protein (mg). Decrease of MDA to that of control group was calculated.

The values that follow come from US7414068B2, “Benzopyran derivatives substituted with secondary amines including tetrazole, method for the preparation thereof and pharmaceutical compositions containing them” (Dongbu Hannong Chemical Co., Ltd., priority 2002, dated 2008).

Where only a bound is given, the exact number is not on record here.

In the case of `COC(OC)[C@@]1(C)Oc2ccc([N+](=O)[O-])cc2[C@H](N(Cc2nnn(C)n2)c2ccc(Cl)cc2)[C@H]1O` [Example 2, (2S,3R,4S)-6-nitro-4-[N-(4-chlorophenyl)-N-(2-methyl-2H-tetrazol-5-ylmethyl)amino]-3-hydroxy-2-methyl-2-dimethoxymethyl-3,4-dihydro-2H-1-benzopyran], the “Tube formation (inhibitory effect)” value in data set [1] (10 μM) is given as “+”; in data set [1] (100 μM), “++”.
For the compound `COC(OC)[C@@]1(C)Oc2ccc(N)cc2[C@H](N(Cc2nnn(C)n2)c2ccc(C)cc2)[C@H]1O` [Example 28, (2S,3R,4S)-6-amino-4-[N-(4-methylphenyl)-N-(2-methyl-2H-tetrazol-5-ylmethyl)amino]-3-hydroxy-2-methyl-2-dimethoxymethyl-3,4-dihydro-2H-1-benzopyran], in data set [2], the LD50 was more than 2000 mg/kg. The IC50 is more than 30 µM in data set [3] and 4.1 µM in data set [5] (Cortical neurone, 24 h). Besides, the results for the “Tube formation (inhibitory effect)” value in data set [1] (10 μM) and in data set [1] (100 μM) were “+/−” and “+”, respectively. Moreover, in data set [4], the “inhibitory effect against lipid peroxidation induced by iron (%, 100 μM)” value is recorded as 83%. The “protective effect on neuron cell: Inhibition (%, 30 μM compound addition)” value in data set [5] (24 hours) came out at 103%.
Turning to `COC(=O)c1cccc(N(Cc2nnn(C)n2)[C@H]2c3cc([N+](=O)[O-])ccc3O[C@](C)(C(OC)OC)[C@@H]2O)c1` [Example 58, (2S,3R,4S)-6-nitro-4-[N-(3-methoxycarbonylphenyl)-N-(2-methyl-2H-tetrazol-5-ylmethyl)amino]-3-hydroxy-2-methyl-2-dimethoxymethyl-3,4-dihydro-2H-1-benzopyran], the inhibition at 30 µM in data set [6] is more than 75%.
Consider `COC(OC)[C@@]1(C)Oc2ccc([N+](=O)[O-])cc2[C@H](N(Cc2nnn(C)n2)c2ccccc2O)[C@H]1O` [Example 60, (2S,3R,4S)-6-nitro-4-[N-(2-hydroxyphenyl)-N-(2-methyl-2H-tetrazol-5-ylmethyl)amino]-3-hydroxy-2-methyl-2-dimethoxymethyl-3,4-dihydro-2H-1-benzopyran], for which the LD50 in data set [2] is more than 2000 mg/kg. For the same compound, the inhibition at 30 µM in data set [6] is more than 75%. The “inhibitory effect against lipid peroxidation induced by iron (%, 100 μM)” value in data set [4] is listed as 85%. Moreover, the “protective effect on neuron cell: Inhibition (%, 30 μM compound addition)” value in data set [5] (24 hours) worked out at 87%. In addition, the IC50 in data set [5] (Cortical neurone, 24 h) is less than 1 µM; in data set [5] (24 hours) it was 0.7 µM.
For `COC(=O)c1ccc(C)c(N(Cc2nnn(C)n2)[C@H]2c3cc([N+](=O)[O-])ccc3O[C@](C)(C(OC)OC)[C@@H]2O)c1` [Example 68, (2S,3R,4S)-6-nitro-4-[N-(2-methyl-5-methoxycarbonylphenyl)-N-(2-methyl-2H-tetrazol-5-ylmethyl)amino]-3-hydroxy-2-methyl-2-dimethoxymethyl-3,4-dihydro-2H-1-benzopyran], the inhibition at 30 µM in data set [6] was 64%.
As to `COC(OC)[C@@]1(C)Oc2ccc([N+](=O)[O-])cc2[C@H](N(Cc2nnn(C)n2)c2cc(C)ccc2O)[C@H]1O` [Example 70, (2S,3R,4S)-6-nitro-4-[N-(2-hydroxy-5-methylphenyl)-N-(2-methyl-2H-tetrazol-5-ylmethyl)amino]-3-hydroxy-2-methyl-2-dimethoxymethyl-3,4-dihydro-2H-1-benzopyran], the LD50 in data set [2] is more than 2000 mg/kg. For the same compound, the inhibition at 30 µM in data set [6] is more than 75%. The IC50 was more than 30 µM in data set [3]; less than 2 µM in data set [5] (Cortical neurone, 24 h); 1.4 µM in data set [5] (24 hours). In addition, the “protective effect on neuron cell: Inhibition (%, 30 μM compound addition)” value in data set [5] (24 hours) came out at 85%. Moreover, in data set [7] (after 30 min global ischemia and reperfusion), the “EDP (mmHg)” value turned out to be 37.0 mmHg. In data set [7] (reperfusion LDH release), the “LDH (u/g)” value was 18.4 u/g. Besides, the “LVDP X HR (%)” value in data set [7] (reperfusion, % of pre-treatment DP) was determined as 31.9%. The “TTC” value in data set [7] (time to contracture during global ischemia) was 22.0 min.
Regarding `CC(C)(Sc1cc(C(C)(C)C)c(O)c(C(C)(C)C)c1)Sc1cc(C(C)(C)C)c(O)c(C(C)(C)C)c1` [Probucol], the “Inhibitory effect(%) against lipid peroxidation induced by copper” value in data set [8] (Addition 10^−5 M) was 66.7%; in data set [8] (Addition 10^−6 M) it was 58.7%; in data set [8] (Addition 10^−7 M), 33.7%.
For the compound tocopherol, the “Inhibitory effect(%) against lipid peroxidation induced by copper” value turned out to be 29.7% in data set [8] (Addition 10^−5 M) and 21.3% in data set [8] (Addition 10^−7 M).
